The test system of one data set is Vero cells. As to the kind of experiment: Cytotoxicity of the compounds for Vero cells (CPE observation, TC50). To be noted: no virus. It counts as cell-based. The method, then:
(§1) 2. Sample treatment: the compounds of the present invention are dissolved in DMSO or diluent to prepare stock solution which is stored at −20° C. The stock solution is formulated to suitable incipient concentration with culture solution immediately before use, and then 3-fold diluted with the culture solution, 8 degrees of dilution each.
(§2) 4. Test Method: Vero cells are seeded into a 96-well culture plate, at 5% CO2, and cultured at 37° C. for 16 hours. The Vero cells are added with different dilutions of drugs, and the degree of cytopathic effect (CPE) in each group is observed. The half toxic concentration (TC50) of each sample for Vero cells is calculated. Vero cells are added with 100TCID50 enterovirus EV71 respectively, and the virus solution is discarded after adsorption at 37° C. for 1 hour, and then drugs with various degrees of dilution are added respectively. Virus control and cell control are set and incubated at 37° C. The degree of cytopathic effect (CPE) in each group is observed when the degree of cytopathic effect (CPE) of virus control group reaches 4+. The half inhibitory concentration (IC50) of each sample for enterovirus EV71 are calculated. Selectivity Index (SI) is calculated according to the following equation: SI=TC50/IC50.

The test system of data set [1] is enterovirus EV71 (BrCr strain). The data set is described as follows: Activity screening for anti-enterovirus EV71: inhibition of cytopathic effect in Vero cells. To be noted: for IC50: 100TCID50, Vero cells, CPE read when virus control reaches 4+, read-out: IC50 (half inhibitory concentration for enterovirus EV71); for SI (Selectivity Index = TC50/IC50): Vero cells. It counts as cell-based. On the procedure: Test item: Activity screening of the compounds for anti-enterovirus EV71
Test principle: Vero cells are used as viral host. The inhibition of the compound of the invention on the degree of cytopathic effect of Vero cells caused by enterovirus virus EV71 is determined.
1. Virus strain: enterovirus EV71 (BrCr, American Type Culture Collection, ATCC)
as §1
3. Positive control drug: Pirodavir (LGM Pharma), which is a broad-spectrum anti-viral inhibitor.
as §2

Converted amounts (≈) assume the structure as drawn.

On to `Cc1c(Cl)cccc1NC(=O)[C@H]1O[C@@H]1C(=O)N(Cc1ccc(F)cc1)c1ccc(C(=O)Nc2nc3ccccc3s2)cc1` [Compound 28, (2S,3S)—N^2-(4-(benzo[d]thiazol-2-ylcarbamoyl)phenyl)-N^3-(2-methyl-3-chlorophenyl)-N^2-(4-fluorobenzyl)-2,3-epoxybutanediamide], for which the melting point lay in the range of 210.3 to 211.1 °C. Besides, the “TC50 (half toxic concentration for Vero cells)” value with Vero cells came to 0.82 µg/mL. Besides, the IC50 in data set [1] was over 0.27 µg/mL.
Compound `O=C(Nc1nc2ccccc2s1)c1ccc(N(Cc2ccc(F)cc2)C(=O)[C@H]2O[C@@H]2C(=O)Nc2ccc(F)cc2)cc1` [Compound 29, (2S,3S)—N^2-(4-(benzo[d]thiazol-2-ylcarbamoyl)phenyl)-N^3-(4-fluorophenyl)-N^2-(4-fluorobenzyl)-2,3-epoxybutanediamide] displayed a melting point of 199.7 to 200.5 °C. The “TC50 (half toxic concentration for Vero cells)” value in the data set with Vero cells was found to be 1.43 µg/mL. In addition, the IC50 in data set [1] is over 0.82 µg/mL.
Consider `O=C(Nc1nc2ccccc2s1)c1ccc(N(Cc2ccc(F)cc2)C(=O)[C@H]2O[C@@H]2C(=O)Nc2cccc(F)c2)cc1` [Compound 30, (2S,3S)—N^2-(4-(benzo[d]thiazol-2-ylcarbamoyl)phenyl)-N^3-(3-fluorophenyl)-N^2-(4-fluorobenzyl)-2,3-epoxybutanediamide], for which the melting point was in the range of 202.4 to 203.1 °C. The “TC50 (half toxic concentration for Vero cells)” value with Vero cells is 1.43 µg/mL. Besides, in data set [1], the IC50 was 0.36 µg/mL (≈ 0.616 µM) and the “SI (Selectivity Index = TC50/IC50)” value is 3.97.
`O=C(Nc1nc2ccccc2s1)c1ccc(N(Cc2ccc(F)cc2)C(=O)[C@H]2O[C@@H]2C(=O)Nc2ccc(Cl)c(Cl)c2)cc1` [Compound 31, (2S,3S)—N^2-(4-(benzo[d]thiazol-2-ylcarbamoyl)phenyl)-N^3-(3,4-dichlorophenyl)-N^2-(4-fluorobenzyl)-2,3-epoxybutanediamide] came in with a melting point of 218.2 to 219.1 °C. Further, the “TC50 (half toxic concentration for Vero cells)” value with Vero cells is 1.43 µg/mL. Also, in data set [1], the IC50 was over 0.82 µg/mL.
For `O=C(Nc1nc2ccccc2s1)c1ccc(N(Cc2ccc(F)cc2)C(=O)[C@H]2O[C@@H]2C(=O)Nc2nccs2)cc1` [Compound 32, (2S,3S)—N^2-(4-(benzo[d]thiazol-2-ylcarbamoyl)phenyl)-N^2-(4-fluorobenzyl)-N^3-(2-thiazolyl)-2,3-epoxybutanediamide], in that order: 216.4 to 217.2 °C, 1.19 µg/mL and over 0.27 µg/mL.
The compound `CCOC(=O)c1csc(NC(=O)[C@H]2O[C@@H]2C(=O)N(Cc2ccc(F)cc2)c2ccc(C(=O)Nc3nc4ccccc4s3)cc2)n1` [Compound 33, (2S,3S)—N^2-(4-(benzo[d]thiazol-2-ylcarbamoyl)phenyl)-N^2-(4-fluorobenzyl)-N^3-(4-ethoxycarbonylthiazol-2-yl)-2,3-epoxybutanediamide] had a melting point of 220.5 to 221.6 °C. The “TC50 (half toxic concentration for Vero cells)” value in the data set on Vero cells amounted to 1.19 µg/mL. The IC50 in data set [1] is over 0.27 µg/mL.
For `COC(=O)c1csc(NC(=O)[C@H]2O[C@@H]2C(=O)N(Cc2ccc(F)cc2)c2ccc(C(=O)Nc3nc4ccccc4s3)cc2)n1` [Compound 34, (2S,3S)—N^2-(4-(benzo[d]thiazol-2-ylcarbamoyl)phenyl)-N^2-(4-fluorobenzyl)-N^3-(4-methoxycarbonylthiazol-2-yl)-2,3-epoxybutanediamide], in that order: 196.3 to 197.1 °C, 1.43 µg/mL and over 0.82 µg/mL.
For `CCOC(=O)c1cnc(NC(=O)[C@H]2O[C@@H]2C(=O)N(Cc2ccc(F)cc2)c2ccc(C(=O)Nc3nc4ccccc4s3)cc2)s1` [Compound 35, (2S,3S)—N^2-(4-(benzo[d]thiazol-2-ylcarbamoyl)phenyl)-N^2-(4-fluorobenzyl)-N^3-(5-ethoxycarbonylthiazol-2-yl)-2,3-epoxybutanediamide], in that order: 218.6 to 219.2 °C, 4.28 µg/mL and over 2.47 µg/mL.
The like results for `COC(=O)c1cnc(NC(=O)[C@H]2O[C@@H]2C(=O)N(Cc2ccc(F)cc2)c2ccc(C(=O)Nc3nc4ccccc4s3)cc2)s1` [Compound 36, (2S,3S)—N^2-(4-(benzo[d]thiazol-2-ylcarbamoyl)phenyl)-N^2-(4-fluorobenzyl)-N^3-(5-methoxycarbonylthiazol-2-yl)-2,3-epoxybutanediamide] were, in that order, 219.8 to 220.2 °C, 3.56 µg/mL and over 0.82 µg/mL.
In turn, `COc1ccccc1NC(=O)[C@H]1O[C@@H]1C(=O)N(Cc1ccc(F)cc1)c1ccc(C(=O)Nc2nc3ccccc3s2)cc1` [Compound 37, (2S,3S)—N^2-(4-(benzo[d]thiazol-2-ylcarbamoyl)phenyl)-N^3-(2-methoxyphenyl)-N^2-(4-fluorobenzyl)-2,3-epoxybutanediamide] had a melting point of 189.2 to 190 °C. Also, in the data set on Vero cells, the “TC50 (half toxic concentration for Vero cells)” value worked out at 0.82 µg/mL. Besides, the IC50 in data set [1] is over 0.27 µg/mL.
Compound `O=C(Nc1nc2ccccc2s1)c1ccc(N(Cc2ccccc2)C(=O)[C@H]2O[C@@H]2C(=O)O)cc1` [Compound 38, (2S,3S)-3-((4-(benzo[d]thiazol-2-ylcarbamoyl)phenyl)(benzyl)carbamoyl)oxirane-2-carboxylic acid] showed a melting point of 198.6 to 199.3 °C. The “TC50 (half toxic concentration for Vero cells)” value in the data set on Vero cells was determined as 115.47 µg/mL. Moreover, the IC50 in data set [1] is over 22.2 µg/mL.
Turning to `COc1ccc(NC(=O)[C@H]2O[C@@H]2C(=O)N(Cc2ccccc2)c2ccc(C(=O)Nc3nc4ccccc4s3)cc2)cc1OC` [Compound 39, (2S,3S)—N^2-(4-(benzo[d]thiazol-2-ylcarbamoyl)phenyl)-N^2-benzyl-N^3-(3,4-dimethoxyphenyl)-2,3-epoxybutanediamide], the melting point lay in the range of 224.5 to 226 °C. The “TC50 (half toxic concentration for Vero cells)” value with Vero cells was determined as 32.05 µg/mL. In addition, in data set [1], the IC50 was 4.28 µg/mL (≈ 7.03 µM) and the “SI (Selectivity Index = TC50/IC50)” value was 7.49.
In turn, `O=C(Nc1nc2ccccc2s1)c1ccc(N(Cc2ccccc2)C(=O)[C@H]2O[C@@H]2C(=O)Nc2ccc(Cl)c(Cl)c2)cc1` [Compound 40, (2S,3S)—N^2-(4-(benzo[d]thiazol-2-ylcarbamoyl)phenyl)-N^2-benzyl-N^3-(3,4-dichlorophenyl)-2,3-epoxybutanediamide] displayed a melting point of 217.6 to 218.3 °C. Further, the “TC50 (half toxic concentration for Vero cells)” value in the data set with Vero cells amounted to 1.43 µg/mL. Moreover, in data set [1], the IC50 is over 0.82 µg/mL.
For `COC(=O)c1csc(NC(=O)[C@H]2O[C@@H]2C(=O)N(Cc2ccccc2)c2ccc(C(=O)Nc3nc4ccccc4s3)cc2)n1` [Compound 41, (2S,3S)—N^2-(4-(benzo[d]thiazol-2-ylcarbamoyl)phenyl)-N^2-benzyl-N^3-(4-methoxycarbonylthiazol-2-yl)-2,3-epoxybutanediamide], in that order: 223.5 to 224.3 °C, 1.43 µg/mL and over 0.82 µg/mL.

Usually melting point stands for the temperature, or range, at which the solid turns liquid.

The values above are taken from patent US9630957B2, “2,3-butanediamide epoxide compound and preparation method and use thereof” (Institute of Pharmacology and Toxicology Academy of …, priority 2014, dated 2017).
